Common to all, as to assay: NCI tumour cell line growth inhibition, 48 h
The test system of assay [1] is A549 NSCLC.
Assay [2] relates to UACC-62 melanoma.
The subject of assay [3] is T-47D breast.
Assay [4] has as its system SK-MEL-5 melanoma.
Assay [5] relates to HCC-2998 colon.
Assay [6] relates to KM12 colon.
Assay [7] relates to PC-3 prostate.
The subject of assay [8] is SF-539 CNS.
Assay [9] relates to SK-OV-3 ovarian.
The test system of assay [10] is SF-295 CNS.

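Values below derive from 48-hour exposures of cells grown in 96-well plates, with endpoints linearly interpolated between the two concentrations bracketing the appropriate inhibition level. TGI marks complete inhibition of growth.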 Some results are limits rather than exact numbers.

Regarding `COc1cc2ccc1OCc1cccc(n1)COc1ccc(cc1OC)C=Nc1ccc(cc1)N=C2`, the TGI in [1], in assay [2], in [3], in assay [4], in assay [5] and in assay [6] was greater than 100 µM throughout. Besides, the TGI in assay [7], in assay [8], in assay [9] and in assay [10] was greater than 100 µM in each case.
With `O=c1cc(-c2cc(O)c(O)c(-c3c(O)cc4oc(-c5ccc(O)c(O)c5)cc(=O)c4c3O)c2)oc2cc(O)cc(O)c12`, the TGI in assay [1], in [2], in assay [3], in assay [4], in [5] and in assay [7] was greater than 25 µM each time. The TGI in assay [8], in [9] and in [10] was greater than 25 µM in each case.
Turning to `COC(=O)c1cc(C#N)[nH]c1-c1cc(Br)cs1`, the TGI in assay [1] was 31.7 µM; in [2] it was 38.4 µM; in [3] it was 12.8 µM; in assay [4] it was 21.2 µM; in [5] it was greater than 57.5 µM; in assay [6], greater than 53.4 µM. In addition, the TGI was 40.9 µM in assay [7], 33.3 µM in assay [8], 46 µM in [9] and 24.7 µM in [10].
Consider `O=C1NCN(c2ccccc2)C12CCN(CCCN1CCN(CCOC(c3ccc(F)cc3)c3ccc(F)cc3)CC1)CC2`, for which the TGI was 4.14 µM in assay [1]; 3.75 µM in assay [2]; 3.09 µM in assay [3]; 3.09 µM in assay [4]; 2.93 µM in [5]; 6.09 µM in assay [6]. Also, the TGI in assay [7] is 10.9 µM; in assay [8], 3.26 µM; in [9] it was 4.61 µM; in [10], 3.38 µM.
With `Cn1c2ccccc2c(=O)c2c(O)cc3c(c21)C=CC1(CCCCC1)O3`, the TGI in assay [1], in [2], in [3], in assay [4], in [5] and in assay [6] was greater than 10 µM each time. In addition, the TGI in assay [7], in assay [8], in [9] and in [10] was greater than 10 µM in each case.
As for `CCOC(=O)C#Cc1ccccc1`, the TGI was 58.3 µM in assay [1]; 32.5 µM in assay [2]; greater than 100 µM in assay [3]; 17.4 µM in assay [4]; 27.8 µM in [5]; 31.2 µM in assay [6]. In addition, the TGI in assay [7] was 31.3 µM; in [8] it was 19.3 µM; in assay [9], 89.6 µM; in assay [10], 30.2 µM.
With `COC1CC(OC2CCC3(C)C(=CCC4C3C(OC(C)=O)C(OC(=O)CC(C)C)C3(C)C(C(C)=O)CCC43O)C2)OC(C)C1OC1CC(OC)C(OC2CC(OC)C(OC3OC(C)C(OC4OC(CO)C(O)C(O)C4O)C(OC)C3O)C(C)O2)C(C)O1` (stereo not given), the TGI in assay [1], in assay [2], in assay [3], in assay [4], in [5] and in assay [6] was greater than 75 µM in each case. Moreover, the TGI in [7], in [8], in assay [9] and in [10] was greater than 75 µM in each case.
For `COC(=O)C1(Cc2ccc3c(c2)CCC3)Cc2ccccc2C1`, the TGI in [1], in assay [2], in assay [3], in [5], in [6] and in [7] was greater than 100 µM throughout. Also, the TGI in assay [8], in assay [9] and in [10] was greater than 100 µM in each case.
`CO[C@@H]1O[C@H](C(=O)c2ccccc2)[C@H]2OC(C)(C)O[C@@H]12`: the TGI in assay [2], in assay [3], in assay [4], in [5], in assay [6] and in assay [7] was greater than 100 µM each time. Further, the TGI in assay [8], in assay [9] and in assay [10] was greater than 100 µM throughout.
Turning to `O=C(C(Cl)=C(N1CCOCC1)N1CCOCC1)C(Cl)Cl`, the TGI in assay [1], in assay [2], in [3], in assay [4], in assay [5] and in assay [6] was greater than 100 µM in each case. Further, the TGI in assay [7], in [8] and in [9] was greater than 100 µM throughout.
Consider `Cc1ccc(/C=C2\Cc3c(C)cc(C)cc3C2=O)c(C(=O)O)c1`, for which the TGI in assay [1] was greater than 100 µM; in assay [2] it was greater than 100 µM; in assay [3] it was greater than 100 µM; in assay [4], 85.2 µM; in assay [5], 98.6 µM; in assay [6] it was greater than 100 µM. The TGI in assay [7] is greater than 100 µM; in assay [8], 46.2 µM; in [10] it was greater than 100 µM.
On to `CC(=O)OC(Cn1cncn1)(Cn1cncn1)c1ccc(Cl)cc1Cl`, for which the TGI in [1], in [3], in [4], in assay [5], in [6] and in [7] was greater than 100 µM throughout. Also, the TGI in [8], in assay [9] and in [10] was greater than 100 µM each time.
Take `Cc1ccc(C2=CC(=O)/C(=C\C(=O)c3ccc(Cl)cc3)O2)cc1`: the TGI is 23.8 µM in assay [2]; 24.3 µM in [3]; 33.2 µM in assay [4]; 51.1 µM in assay [5]; 42.9 µM in assay [6]; 12.2 µM in assay [7]. Also, the TGI in [8] turned out to be 55.1 µM; in assay [9] it was 56.7 µM.
With `CC(C(=O)O)C(C)(O)C(=O)O` (stereo not given), the TGI in assay [1], in assay [2], in [3], in assay [4], in assay [5] and in assay [6] was greater than 100 µM each time. The TGI in assay [7], in assay [8] and in assay [9] was greater than 100 µM throughout.
Consider `O=C1CSC2=NC3=C(COC/C3=C\c3ccc(Br)cc3)C(c3ccc(Br)cc3)N12` (stereo not given), for which the TGI in [2], in [3], in [4], in assay [5], in assay [6] and in assay [7] was greater than 100 µM in each case. For the same compound, the TGI in [8], in [9] and in assay [10] was greater than 100 µM throughout.

Values taken from PubChem BioAssay (NCI).
